Values of other authors, collected in patent US20230049822A1, “COMPOSITIONS COMPRISING NICLOSAMIDE FOR USE IN TREATING CONDITIONS ASSOCIATED WITH AN ABNORMAL INFLAMMATORY RESPONSE” (First Wave Bio, Inc., priority 2020, published 2023).
Counter-ions that a name gives are not always drawn.

Tests used:
[1] = test system: pathogenic T cells isolated from IBD patients; details: see WO 2017/040864
murine models of IBD = details: see WO 2017/040864

O=C(Nc1ccc([N+](=O)[O-])cc1Cl)c1cc(Cl)ccc1O [Niclosamide, 5-chloro-N-(2-chloro-4-nitrophenyl)-2-hydroxybenzamide]
killing of pathogenic T cells [1]: kills pathogenic T cells | efficacy in murine models of IBD (murine models of IBD): effective | solubility in acetone: soluble | solubility in ether, ethanol and chloroform: sparingly soluble | water solubility (at 20° C.): 5 to 8 µg/mL

O=C(Nc1ccc([N+](=O)[O-])cc1Cl)c1cc(Cl)ccc1O [ethanolamine salt, 5-chloro-N-(2-chloro-4-nitrophenyl)-2-hydroxybenzamide with 2-aminoethanol (1:1)]
dissolves in distilled water (distilled water, 20° C.): 180 to 280 mg/L
